Earlier results on two compounds are cited in publication PMC8397425, “A Strategy to Conjugate Bioactive Fragments to Cytotoxic Diiron Bis(cyclopentadienyl) Complexes” (Organometallics, 2021).

One data set concerns cancer cell lines. The settings on record: cited from earlier work.
Data set [1] concerns Human Ovarian Carcinoma (A2780) cell line. The settings on record: 72 h exposure; cited from earlier work.
Data set [2] deals with Human Ovarian Carcinoma Cisplatin Resistant (A2780cisR) cell line. To be noted: 72 h exposure; cited from earlier work.
The test system of data set [3] is Human Embryonic Kidney 293T (HEK 293T) cell line. To be noted: 72 h exposure; cited from earlier work.

Consider `C#CCOC(=O)c1ccccc1OC(C)=O` [ALK^A1], for which, in the data set with cancer cell lines, the “activity toward cancer cell lines” value is listed as “absence of activity”.

As to `CC(=O)Oc1ccccc1C(=O)O` [aspirin, acetylsalicylic acid], the concentration for half-maximal inhibition (IC50) in data set [1], in data set [2] and in data set [3] was above 200 µM each time.
